Data taken from the NIST ThermoML archive (doi:10.1016/j.tca.2013.08.016).
Numbers after ± are expanded uncertainties.

Experiments:
[1] = refractive index (Na D-line) (dimensionless); φn = volume fraction of the nth substance listed; settings: 101 kPa, Liquid, Standard Abbe refractometry
[2] = refractive index (Na D-line) (dimensionless); settings: 101.33 kPa, Liquid, Standard Abbe refractometry

CO [methanol] + CCCC[n+]1ccccc1.F[B-](F)(F)F
[1], φ2 = 0
Settings	refractive index
293.15 K	1.32843 ± 0.0004
303.15 K	1.32433 ± 0.0004
313.15 K	1.32015 ± 0.0004
323.15 K	1.3167 ± 0.0004

CCCC[n+]1ccc(C)cc1.F[B-](F)(F)F [1-butyl-4-methylpyridinium tetrafluoroborate]
[2]
Settings	refractive index
293.15 K	1.45386 ± 0.00045
303.15 K	1.45114 ± 0.00045
313.15 K	1.44841 ± 0.00045
323.15 K	1.44571 ± 0.00045

CCO [ethanol] + CCCC[n+]1ccccc1.F[B-](F)(F)F
[1], φ2 = 0
Settings	refractive index
303.15 K	1.35702 ± 0.00041
313.15 K	1.3527 ± 0.00041
323.15 K	1.34837 ± 0.00041

CCCC[n+]1cccc(C)c1.F[B-](F)(F)F [1-butyl-3-methylpyridinium tetrafluoroborate] + CCO
[1]
Settings	refractive index
293.15 K, φ1 = 0.0895	1.3713 ± 0.00042
293.15 K, φ1 = 0.1467	1.3773 ± 0.00042
293.15 K, φ1 = 0.2062	1.38325 ± 0.00042
293.15 K, φ1 = 0.2725	1.38979 ± 0.00042
293.15 K, φ1 = 0.4637	1.4075 ± 0.00043
293.15 K, φ1 = 0.5588	1.41595 ± 0.00043
293.15 K, φ1 = 0.6583	1.4245 ± 0.00043
293.15 K, φ1 = 0.6935	1.42757 ± 0.00044
293.15 K, φ1 = 0.8285	1.43878 ± 0.00044
293.15 K, φ1 = 0.883	1.44311 ± 0.00044
293.15 K, φ1 = 0.928	1.4467 ± 0.00044
293.15 K, φ1 = 0.9641	1.44963 ± 0.00045
293.15 K, φ1 = 1	1.45248 ± 0.00045
303.15 K, φ1 = 0.0891	1.3672 ± 0.00042
303.15 K, φ1 = 0.1461	1.37333 ± 0.00042
303.15 K, φ1 = 0.2054	1.3794 ± 0.00042
303.15 K, φ1 = 0.2716	1.38602 ± 0.00042
303.15 K, φ1 = 0.4626	1.404 ± 0.00043
303.15 K, φ1 = 0.5577	1.41257 ± 0.00043
303.15 K, φ1 = 0.6572	1.42134 ± 0.00043
303.15 K, φ1 = 0.6925	1.42444 ± 0.00044
303.15 K, φ1 = 0.8278	1.43584 ± 0.00044
303.15 K, φ1 = 0.8825	1.44031 ± 0.00044
303.15 K, φ1 = 0.9277	1.4439 ± 0.00044
303.15 K, φ1 = 0.964	1.4469 ± 0.00045
303.15 K, φ1 = 1	1.44976 ± 0.00045
313.15 K, φ1 = 0.0887	1.36314 ± 0.00042
313.15 K, φ1 = 0.1477	1.36964 ± 0.00042
313.15 K, φ1 = 0.2047	1.37558 ± 0.00042
313.15 K, φ1 = 0.2706	1.3823 ± 0.00042
313.15 K, φ1 = 0.4614	1.40055 ± 0.00043
313.15 K, φ1 = 0.5565	1.40924 ± 0.00043
313.15 K, φ1 = 0.6561	1.4182 ± 0.00043
313.15 K, φ1 = 0.6914	1.42134 ± 0.00044
313.15 K, φ1 = 0.8271	1.43292 ± 0.00044
313.15 K, φ1 = 0.882	1.43752 ± 0.00044
313.15 K, φ1 = 0.9273	1.44114 ± 0.00044
313.15 K, φ1 = 0.9638	1.44418 ± 0.00045
313.15 K, φ1 = 1	1.44706 ± 0.00045
323.15 K, φ1 = 0.0883	1.35913 ± 0.00042
323.15 K, φ1 = 0.147	1.36572 ± 0.00042
323.15 K, φ1 = 0.2037	1.37173 ± 0.00042
323.15 K, φ1 = 0.2695	1.37856 ± 0.00042
323.15 K, φ1 = 0.4599	1.39714 ± 0.00043
323.15 K, φ1 = 0.555	1.40599 ± 0.00043
323.15 K, φ1 = 0.6548	1.41504 ± 0.00043
323.15 K, φ1 = 0.6902	1.41823 ± 0.00044
323.15 K, φ1 = 0.8263	1.42988 ± 0.00044
323.15 K, φ1 = 0.8814	1.43448 ± 0.00044
323.15 K, φ1 = 0.9269	1.43827 ± 0.00044
323.15 K, φ1 = 0.9636	1.44135 ± 0.00045
323.15 K, φ1 = 1	1.44425 ± 0.00045

CCO [ethanol] + CCCC[n+]1cccc(C)c1.F[B-](F)(F)F
[1], φ2 = 0
Settings	refractive index
293.15 K	1.36144 ± 0.00041
303.15 K	1.35702 ± 0.00041
313.15 K	1.3527 ± 0.00041
323.15 K	1.34837 ± 0.00041

CO [methanol] + CCCC[n+]1cccc(C)c1.F[B-](F)(F)F
[1], φ2 = 0
Settings	refractive index
293.15 K	1.32843 ± 0.0004
303.15 K	1.32433 ± 0.0004
313.15 K	1.32015 ± 0.0004
323.15 K	1.3167 ± 0.0004

CCCC[n+]1cccc(C)c1.F[B-](F)(F)F [1-butyl-3-methylpyridinium tetrafluoroborate]
[2]
Settings	refractive index
293.15 K	1.45248 ± 0.00045
303.15 K	1.44976 ± 0.00045
313.15 K	1.44706 ± 0.00045
323.15 K	1.44425 ± 0.00045

CCCC[n+]1ccccc1.F[B-](F)(F)F [1-butylpyridinium tetrafluoroborate]
[2]
Settings	refractive index
293.15 K	1.44719 ± 0.00045
303.15 K	1.44454 ± 0.00045
313.15 K	1.4419 ± 0.00045
323.15 K	1.43924 ± 0.00045

CCO [ethanol] + CCCC[n+]1ccc(C)cc1.F[B-](F)(F)F
[1], φ2 = 0
Settings	refractive index
293.15 K	1.36144 ± 0.00041
303.15 K	1.35702 ± 0.00041
313.15 K	1.3527 ± 0.00041
323.15 K	1.34837 ± 0.00041

CCO [ethanol]
[2]
Settings	refractive index
293.15 K	1.36144 ± 0.00041
303.15 K	1.35702 ± 0.00041
313.15 K	1.3527 ± 0.00041
323.15 K	1.34837 ± 0.00041

CCCC[n+]1ccccc1.F[B-](F)(F)F [1-butylpyridinium tetrafluoroborate] + CO
[1]
Settings	refractive index
293.15 K, φ1 = 0.0747	1.33926 ± 0.0004
293.15 K, φ1 = 0.1041	1.34327 ± 0.0004
293.15 K, φ1 = 0.2013	1.35648 ± 0.00041
293.15 K, φ1 = 0.3315	1.37286 ± 0.00041
293.15 K, φ1 = 0.4125	1.38271 ± 0.00042
293.15 K, φ1 = 0.5222	1.39563 ± 0.00042
293.15 K, φ1 = 0.6527	1.41047 ± 0.00043
293.15 K, φ1 = 0.7475	1.42106 ± 0.00043
293.15 K, φ1 = 0.8152	1.42843 ± 0.00044
293.15 K, φ1 = 0.8666	1.43377 ± 0.00044
293.15 K, φ1 = 0.9113	1.43844 ± 0.00044
293.15 K, φ1 = 0.9687	1.44425 ± 0.00044
293.15 K, φ1 = 1	1.44719 ± 0.00045
303.15 K, φ1 = 0.0742	1.3354 ± 0.0004
303.15 K, φ1 = 0.1035	1.33949 ± 0.0004
303.15 K, φ1 = 0.2002	1.35293 ± 0.00041
303.15 K, φ1 = 0.3301	1.36955 ± 0.00041
303.15 K, φ1 = 0.411	1.37949 ± 0.00041
303.15 K, φ1 = 0.5206	1.39258 ± 0.00042
303.15 K, φ1 = 0.6513	1.40757 ± 0.00043
303.15 K, φ1 = 0.7463	1.41824 ± 0.00043
303.15 K, φ1 = 0.8142	1.42561 ± 0.00044
303.15 K, φ1 = 0.8658	1.43105 ± 0.00044
303.15 K, φ1 = 0.9108	1.43576 ± 0.00044
303.15 K, φ1 = 0.9685	1.4416 ± 0.00044
303.15 K, φ1 = 1	1.44454 ± 0.00045
313.15 K, φ1 = 0.0737	1.33144 ± 0.0004
313.15 K, φ1 = 0.1028	1.33587 ± 0.0004
313.15 K, φ1 = 0.1991	1.34941 ± 0.00041
313.15 K, φ1 = 0.3286	1.36646 ± 0.00041
313.15 K, φ1 = 0.4096	1.3765 ± 0.00041
313.15 K, φ1 = 0.5189	1.38958 ± 0.00042
313.15 K, φ1 = 0.6498	1.40471 ± 0.00043
313.15 K, φ1 = 0.745	1.41542 ± 0.00043
313.15 K, φ1 = 0.8132	1.42273 ± 0.00044
313.15 K, φ1 = 0.865	1.42832 ± 0.00044
313.15 K, φ1 = 0.9103	1.433 ± 0.00044
313.15 K, φ1 = 0.9683	1.43897 ± 0.00044
313.15 K, φ1 = 1	1.4419 ± 0.00045
323.15 K, φ1 = 0.0732	1.32837 ± 0.0004
323.15 K, φ1 = 0.1022	1.33278 ± 0.0004
323.15 K, φ1 = 0.1981	1.3469 ± 0.00041
323.15 K, φ1 = 0.3271	1.3641 ± 0.00041
323.15 K, φ1 = 0.408	1.37436 ± 0.00041
323.15 K, φ1 = 0.5172	1.38733 ± 0.00042
323.15 K, φ1 = 0.6482	1.40238 ± 0.00043
323.15 K, φ1 = 0.7438	1.41283 ± 0.00043
323.15 K, φ1 = 0.8122	1.42002 ± 0.00044
323.15 K, φ1 = 0.8642	1.42546 ± 0.00044
323.15 K, φ1 = 0.9097	1.43029 ± 0.00044
323.15 K, φ1 = 0.9681	1.43614 ± 0.00044
323.15 K, φ1 = 1	1.43924 ± 0.00045
